Reference: patent publication US9359378B2, “Substituted oxazolo[3,4-a]pyrazines as pharmaceutcals” (BIOLAB SANUS FARMACÊUTICA LTDA., priority 2014, dated 2016)

Key:
PDE4B1 = target: T1, PDE4B1 (Homo sapiens, UniProt Q07343); assay: PDE4B1 enzyme inhibition (HTRF, cAMP substrate); assay type: biochemical; conditions: human recombinant enzyme (Sf9); FIGS. 14 and 15; test concentration not given
T1 construct: host or cells: Sf9
Excerpt: (§1) The effects of the BL-230 and BL-236 compounds on the activity of the human enzymes PDE2A1, PDE3A, PDE4A1A, PDE4B1, PDE7A, PDE8A1, and PDE10A2 and PDE11A4 were quantified by measuring the production of adenosine 5′-monophosphate (5′AMP) from cyclic adenosine monophosphate (cAMP), with human recombinant enzyme expressed in Sf9 cells and the detection method was by using HTRF®.
(§2) The test compound, the reference compound or water (control) were mixed with the enzyme (the enzymes and their amounts used are described in Table 1) in a buffer containing 44.4 mM Tris-HCl, 5.28 mM MgCl2, 2.64 mM DTT and 0.044% Tween® 20 (pH 7.8). Then, the reaction was initiated by the addition of 40 nM of cAMP substrate and the mixture was incubated for 30 minutes at room temperature. For basal control measurements, the enzyme was omitted from the reaction mixture. The fluorescence acceptor (Dye2 labeled cAMP) and fluorescence donor (anti-cAMP antibody labeled with europium cryptate) were added in the presence of 1 mM IBMX. After 60 minutes, the fluorescence corresponding to the amount of transfer residual cAMP was measured at λex=337 nm, λem=620 nm and λem=665 nm using a microplate reader (RubyStar, BMG). The enzyme activity was determined by the signal division measured at 665 nm, by the measured signal at 620 nm (right). The results were expressed as a inhibition percentage of the control enzyme activity. […]

PDE11A4 = target: T2, PDE11A4 (Homo sapiens, UniProt Q9HCR9); assay: PDE11A4 enzyme inhibition (HTRF, cAMP substrate); assay type: biochemical; conditions: human recombinant enzyme (Sf9); FIGS. 14 and 15; test concentration not given
T2 construct: host or cells: Sf9
T2 sequence (Q9HCR9 whole entry): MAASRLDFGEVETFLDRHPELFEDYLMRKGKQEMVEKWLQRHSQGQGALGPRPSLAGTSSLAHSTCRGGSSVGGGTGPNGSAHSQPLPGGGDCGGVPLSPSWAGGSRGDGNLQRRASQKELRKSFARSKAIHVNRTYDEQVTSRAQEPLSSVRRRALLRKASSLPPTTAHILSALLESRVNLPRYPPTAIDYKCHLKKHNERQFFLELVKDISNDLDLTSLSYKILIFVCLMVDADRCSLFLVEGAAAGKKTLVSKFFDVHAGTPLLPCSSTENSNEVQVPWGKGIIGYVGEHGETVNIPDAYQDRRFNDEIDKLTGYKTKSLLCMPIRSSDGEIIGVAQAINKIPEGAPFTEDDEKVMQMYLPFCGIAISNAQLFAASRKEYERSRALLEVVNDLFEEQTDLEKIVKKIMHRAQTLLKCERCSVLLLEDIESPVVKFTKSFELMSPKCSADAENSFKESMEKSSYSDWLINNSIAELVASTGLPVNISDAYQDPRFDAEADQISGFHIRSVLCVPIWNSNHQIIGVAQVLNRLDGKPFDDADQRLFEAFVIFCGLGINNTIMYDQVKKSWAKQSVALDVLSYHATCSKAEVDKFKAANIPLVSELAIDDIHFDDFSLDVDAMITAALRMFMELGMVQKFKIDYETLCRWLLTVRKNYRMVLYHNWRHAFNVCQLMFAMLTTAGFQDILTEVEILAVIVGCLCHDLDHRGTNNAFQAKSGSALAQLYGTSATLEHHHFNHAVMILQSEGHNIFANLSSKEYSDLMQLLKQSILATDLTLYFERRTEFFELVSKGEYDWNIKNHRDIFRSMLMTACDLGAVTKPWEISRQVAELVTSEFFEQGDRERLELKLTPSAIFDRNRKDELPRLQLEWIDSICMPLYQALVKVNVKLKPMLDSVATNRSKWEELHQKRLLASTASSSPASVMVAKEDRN
Excerpt: as §1, §2

T1 sequence (Q07343 whole entry): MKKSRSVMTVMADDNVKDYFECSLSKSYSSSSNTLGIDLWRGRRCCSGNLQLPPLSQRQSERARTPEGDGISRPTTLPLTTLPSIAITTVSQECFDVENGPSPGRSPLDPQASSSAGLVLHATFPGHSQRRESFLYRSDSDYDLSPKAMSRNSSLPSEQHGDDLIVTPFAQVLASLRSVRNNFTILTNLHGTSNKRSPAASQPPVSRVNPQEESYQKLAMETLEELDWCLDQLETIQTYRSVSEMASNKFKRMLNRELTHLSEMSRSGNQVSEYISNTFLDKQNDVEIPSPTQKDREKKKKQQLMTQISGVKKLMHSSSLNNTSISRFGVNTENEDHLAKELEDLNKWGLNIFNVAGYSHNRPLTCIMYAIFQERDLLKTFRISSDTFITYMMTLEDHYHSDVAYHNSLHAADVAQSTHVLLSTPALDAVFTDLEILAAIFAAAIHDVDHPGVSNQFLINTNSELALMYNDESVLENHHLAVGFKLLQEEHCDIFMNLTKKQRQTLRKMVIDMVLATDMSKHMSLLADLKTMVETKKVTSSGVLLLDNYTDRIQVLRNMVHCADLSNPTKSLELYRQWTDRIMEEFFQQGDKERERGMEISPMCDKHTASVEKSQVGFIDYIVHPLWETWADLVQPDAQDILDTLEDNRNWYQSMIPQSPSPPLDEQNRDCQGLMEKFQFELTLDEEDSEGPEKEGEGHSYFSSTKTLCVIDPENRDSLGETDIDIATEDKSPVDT

| inhibition of PDE4B1 enzyme activity (PDE4B1) | melting point [°C] | inhibition of PDE11A4 enzyme activity (PDE11A4) [%] | SMILES |
| --- | --- | --- | --- |
| did not inhibit | 254 to 258 | 75 | O=C1C2=C(c3c[nH]c4ccccc34)OC(c3ccc4c(c3)OCO4)N2C(=O)CN1CCO (stereo not drawn) [BL-230, 3-(benzo[d][1,3]dioxol-5yl)-7-(2-hydroxyethyl)-1-(1H-indol-3-yl)-6,7-dihydro-3H-oxazolo[3,4-a]pyrazine-5,8-dione] |
| did not inhibit | 235 to 239 | 80 | C[C@@H](CO)N1CC(=O)N2C(=C(c3c[nH]c4ccccc34)OC2c2ccc3c(c2)OCO3)C1=O (stereo partly drawn) [BL-236, 3-(benzo[d][1,3]dioxol-5yl)-7-((S)1-hydroxypropan-2yl)-1-(1H-indol-3-yl)-6,7-dihydro-3H-oxazolo[3,4-a]pyrazine-5,8-dione] |
